One experiment has as its target D2 receptor (Rattus norvegicus, UniProt P61169). The experiment in a line: biochemical. Format: binding.
The target in experiment [1] is T1, human dopamine D4 receptor subtype (Homo sapiens, UniProt P21917).
T1 construct: expressed in transfected cells
T1 sequence (P21917 1-419): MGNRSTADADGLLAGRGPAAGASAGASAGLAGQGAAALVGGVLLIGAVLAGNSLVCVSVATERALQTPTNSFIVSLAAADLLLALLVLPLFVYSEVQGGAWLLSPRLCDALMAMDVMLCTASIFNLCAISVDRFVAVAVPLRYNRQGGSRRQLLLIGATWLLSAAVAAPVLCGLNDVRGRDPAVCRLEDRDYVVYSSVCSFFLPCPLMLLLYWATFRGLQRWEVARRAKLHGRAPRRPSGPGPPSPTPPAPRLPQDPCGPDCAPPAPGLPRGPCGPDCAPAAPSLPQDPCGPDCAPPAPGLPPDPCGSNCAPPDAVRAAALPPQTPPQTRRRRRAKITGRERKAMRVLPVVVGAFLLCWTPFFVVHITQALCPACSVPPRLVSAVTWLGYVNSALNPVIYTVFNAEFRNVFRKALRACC
The experiment in a line: D4 receptor binding, [3H]YM-09151-2 displacement. The method, then:
Assay for D4 receptor binding activity
Clonal cell lines expressing the human dopamine D4 receptor subtype were harvested in PBS and the cells centrifuged and the pellets stored at -80° C. until used in the binding assay. The pellets were resuspended and the cells lysed at 4° C. in 50 mM Tris pH 7.4 buffer containing 120 mM NaCl, 1 mM EDTA and 5 mM MgCl2. The homogenate is centrifuged at 48000× g for 10 minutes at 4° C. The resulting pellet is resuspended in fresh buffer and centrifuged again. After resuspension of the pellet in fresh buffer a […] aliquot is removed for protein determination. The remaining homogenate is centrifuged as above, the supernatant removed and the pellet stored at 4° C. until needed; at which time it is resuspended to a final concentration of […] with 50 mM Tris buffer (pH 7.4) and 120 mM NaCl just prior to use. Incubations were carried out for 60 minutes at 25° C. in the presence of 0.1 nM [^3 H] YM-09151-2. The incubation was terminated by rapid filtration through Whatman GF/C filters and rinsed with 2×4 ml washes of chiled 50 mM Tris (pH 7.4) and 120 mM NaCl. Non-specific binding was determined with 1 mM spiperone and radioactivity determined by counting in an LKB beta counter. Binding parameters were determined by non-linear least squares regression analysis, from which the inhibition constant Ki could be calculated for each test compound. The binding characteristics of some examples of this patent are shown in Table 2 for the dopamine D4 binding assay.

The next experiment addresses D3 receptor. The experiment in a line: D3 receptor binding, [3H]raclopride displacement. Conditions: 0.5 nM 3H-raclopride; recombinantly produced D3 receptors, BHK 293 cells.
The mark [2] stands for this setting: 0.5 nM 3H-raclopride, rat striatal homogenates (Table 1), read-out: D2 binding IC50.
Setting [3] is: 0.1 nM [3H]YM-09151-2, 60 min, 25° C., clonal cell lines expressing human D4 (Table 2), read-out: Ki.

Where a name gives a salt, the structure may show the parent alone. Read-outs that look alike come from different tables or passages of the source.

Chain of D2 receptor (P61169 whole entry): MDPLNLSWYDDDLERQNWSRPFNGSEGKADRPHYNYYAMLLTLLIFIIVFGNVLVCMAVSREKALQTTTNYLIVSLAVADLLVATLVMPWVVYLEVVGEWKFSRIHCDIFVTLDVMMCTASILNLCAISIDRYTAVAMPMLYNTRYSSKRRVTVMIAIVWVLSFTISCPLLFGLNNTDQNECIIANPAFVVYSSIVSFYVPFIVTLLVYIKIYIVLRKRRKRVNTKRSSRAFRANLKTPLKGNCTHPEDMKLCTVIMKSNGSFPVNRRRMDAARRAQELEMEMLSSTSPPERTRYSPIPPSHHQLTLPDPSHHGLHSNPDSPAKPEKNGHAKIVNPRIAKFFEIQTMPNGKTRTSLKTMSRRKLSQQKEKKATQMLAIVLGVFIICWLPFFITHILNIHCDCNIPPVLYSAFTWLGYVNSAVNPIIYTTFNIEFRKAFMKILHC
Experimental for D2 receptor: (§1) Assay for D2 and D3 receptor binding activity
(§2) Striatial tissue is dissected from adult male Sprague Dawley rats or BHK 293 cells are harvested containing recombinantly produced D2 or D3 receptors. The sample is homogenized in 100 volumes (w/vol) of 0.05 M Tris HCl buffer at 4° C. and pH 7.4. The sample is then centrifuged at 30,000× g and resuspended and rehomogenized. The sample is then centrifuged as described and the final tissue sample is frozen until use. The tissue is resuspended 1:20 (wt/vol) in 0.05 M Tris HCl buffer containing 100 mM NaCl.
(§3) Incubations are carried out at 48° C. and contain 0.5 ml of tissue sample, 0.5 nM ^3 H-raclopride and the compound of interest in a total incubation of 1.0 ml.
Experimental for D3 receptor: as §1, §2, §3

For the molecule `COc1ccc(-c2ccccc2)cc1CN1CCN(c2ncccn2)CC1` [Compound 1, 4phenyl-2-[(4-(2-pyrimidinyl)-piperazinyl)methyl]-anisole dihydrochloride], on D2 receptor (setting [2]), the IC50 is 175 nM. Moreover, the Ki in experiment [1] (setting [3]) was 32 nM.
Consider `COc1ccc(CN2CCN(c3ncccn3)CC2)cc1-c1ccccc1` [Compound 2, 2-phenyl-4-[(4-(2-pyrimidinyl)-piperazinyl)methyl]anisole dihydrochloride], for which, in experiment [1] (setting [3]), the Ki came to 243 nM.
As for `C1=C(c2ccccc2)CCN(Cc2cccc(-c3ccccc3)c2)C1` [Compound 3, 3-[(4-1,2,3,6-tetrahydropyridin-1-yl)methyl]biphenyl hydrochloride], the IC50 against D2 receptor and on D3 receptor was 12 nM throughout. This molecule also registered a Ki in experiment [1] of 18 nM.
Consider `c1ccc(-c2cccc(CN3CCC(c4ccccc4)CC3)c2)cc1` [Compound 4, 3-[(4phenyl-piperidin-1-yl)methyl]biphenyl hydrochloride], for which the figures for the IC50 on D2 receptor (setting [2]) and on D3 receptor were 5 nM and 61 nM, respectively. Moreover, the Ki in experiment [1] (setting [3]) was 28 nM.
As to `Cc1cc(-c2ccccc2)ccc1CN1CCC(Cc2ccccc2)CC1` [Compound 5, 3-phenyl-6-[(4-benzyl-piperidin-1-yl)methyl]toluenehydrochloride], the IC50 at D3 receptor was determined as 2490 nM. Further, in experiment [1] (setting [3]), the Ki is 286 nM.
Consider `CC(c1cccc(-c2ccccc2)c1)N(C)Cc1ccccc1` (centres unmarked) [Compound 6, N-(1-(3-biphenyl)ethyl-N-methylbenzylamine hydrochloride], for which the IC50 on D3 receptor worked out at 6120 nM. For the same molecule, the Ki in experiment [1] (setting [3]) is over 75 nM.
For `COc1ccccc1N1CCN(C(C)c2cccc(-c3ccccc3)c2)CC1` (centres unmarked) [Compound 7, 1-(2-methoxyphenyl)-4-(1-(3-biphenyl)ethyl)piperazine dihydrochloride], the IC50 on D3 receptor came out at 342 nM. Further, the Ki in experiment [1] (setting [3]) is over 75 nM.
Consider `c1ccc(-c2cc(CN3CCN(c4ncccn4)CC3)cc(-c3ccccc3)c2)cc1` [Compound 8, 1-(2-pyrimidyl)-4-((3,5-diphenylphenyl)methyl)piperazine dihydrochloride], for which the IC50 on D2 receptor (setting [2]) was 1940 nM. Besides, the Ki in experiment [1] (setting [3]) stood at 1050 nM.
Taken in the same sequence, the figures for `c1ccc(CC2CCN(Cc3ccnc(-c4ccccc4)c3)CC2)cc1` [Compound 9, 2-phenyl-4-[(4-benzyl-piperidin-1-yl)methyl]-pyridine dihydrochloride] were 290 nM and 56 nM.
As for `c1ccc(CC2CCN(Cc3cccc(-c4ccccc4)n3)CC2)cc1` [Compound 10, 2-Phenyl-6-[(4benzyl-piperidin-1-yl)methyl]-pyridine], the IC50 on D3 receptor came to 1140 nM. In experiment [1] (setting [3]), the Ki stood at 769 nM.
With `c1ccc(CC2CCN(Cc3ccnc(-c4ccccc4)n3)CC2)cc1` [Compound 11, 2-phenyl-4-[(4-benzyl-piperidin-1-yl)methyl]-pyrimidine dihydrochloride], the IC50 on D3 receptor turned out to be 1610 nM. Besides, in experiment [1] (setting [3]), the Ki came out at 600 nM.

By IC50 is commonly meant the concentration needed to halve the response being measured. A word on the Ki: it is a measure of affinity in units of concentration, obtained from inhibition or displacement.

The values are drawn from patent US6221871A, “Certain aminomethyl biphenyl, aminomethyl phenyl pyridine and aminomethyl phenyl pyrimidine derivatives; novel dopamine receptor subtype selective ligands” (priority 1999, dated 2001).
